Data on 21 compounds can be found in PubChem BioAssay AID248 (DTP/NCI, 2004).

“And” between values parts separate entries of the source, which are not always exact repeats. Equal entries are not always repeated. Toxic doses and inconclusive results are not listed.

The test system of this assay is L1210 leukemia ip in BDF1 mice, survival T/C. The assay is described as follows: NCI In Vivo Anticancer Drug Screen. Data for tumor model L1210 Leukemia (intraperitoneal) in B6D2F1 (BDF1) mice. The note with it: endpoint: mean survival time, higher = longer survival. The method, boiled down: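 Tumor cells were implanted, animals were treated, and survival was followed. The result divides the treated measurement by the vehicle-control measurement.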

The mark [1] stands for this setting: dose: 400.0 mg/kg/injection, schedule: Q01DX001 (ip), vehicle: carboxymethylcellulose (CMC).
The mark [2] stands for this setting: dose: 100.0 mg/kg/injection, schedule: Q01DX009 (ip), vehicle: saline with Tween-80.
Setting [3] is: dose: 200.0 mg/kg/injection, schedule: Q01DX009 (ip), vehicle: saline with Tween-80.
Setting [4] is: dose: 100.0 mg/kg/injection, schedule: Q01DX009 (ip), vehicle: Klucel (hydroxypropylcellulose) (HPC).
[5] abbreviates: dose: 200.0 mg/kg/injection, schedule: Q01DX009 (ip), vehicle: Klucel (hydroxypropylcellulose) (HPC).
[6] abbreviates: dose: 400.0 mg/kg/injection, schedule: Q01DX009 (ip), vehicle: Klucel (hydroxypropylcellulose) (HPC).
Setting [7] is: dose: 100.0 mg/kg/injection, schedule: Q04DX003 (ip), vehicle: Klucel (hydroxypropylcellulose) (HPC).
[8] abbreviates: dose: 200.0 mg/kg/injection, schedule: Q04DX003 (ip), vehicle: Klucel (hydroxypropylcellulose) (HPC).
The mark [9] stands for this setting: dose: 50.0 mg/kg/injection, schedule: Q01DX009 (ip), vehicle: saline.

For the compound `CC(C)c1ccc(/C=C2\C=Nc3ccccc32)cc1`, the T/C is, setting by setting: (dose: 100.0 mg/kg/injection, schedule: Q04DX002 (ip), vehicle: gum acacia) 95 % of control; (dose: 200.0 mg/kg/injection, schedule: Q04DX002 (ip), vehicle: gum acacia) 92 % of control; (dose: 400.0 mg/kg/injection, schedule: Q04DX002 (ip), vehicle: gum acacia) 95 % of control.

Take `O=C(NC(=O)c1ccc([N+](=O)[O-])cc1)Nc1ccccc1`: the T/C (dose: 264.0 mg/kg/injection, schedule: Q01DX001 (ip), vehicle: carboxymethylcellulose (CMC)) was 92 % of control; the T/C under setting [1] is 96 % of control; the T/C (dose: 600.0 mg/kg/injection, schedule: Q01DX001 (ip), vehicle: carboxymethylcellulose (CMC)) was 88 % of control.

As to `C=C(C(=O)c1ccccc1)C(O)c1ccccc1` (stereo not drawn), the T/C under setting [2] is 104 % of control; the T/C (dose: 100.0 mg/kg/injection, schedule: Q04DX003 (ip), vehicle: saline with Tween-80) was 100 % of control; the T/C under setting [3] is 90 % of control; the T/C (dose: 200.0 mg/kg/injection, schedule: Q04DX003 (ip), vehicle: saline with Tween-80) was 100 % of control; the T/C (dose: 400.0 mg/kg/injection, schedule: Q04DX003 (ip), vehicle: saline with Tween-80) is 97 % of control.

Consider `COc1ccc(C(=O)/C=C/c2ccc(OCc3ccccc3)c(OC)c2)cc1OC`, for which the T/C (dose: 100.0 mg/kg/injection, schedule: Q04DX003 (ip), vehicle: water) was 93 % of control; the T/C (dose: 200.0 mg/kg/injection, schedule: Q04DX003 (ip), vehicle: water) is 93 % of control; the T/C (dose: 400.0 mg/kg/injection, schedule: Q04DX003 (ip), vehicle: water) was 91 % of control.

For the compound `N=C(N)c1cccc(NC(=O)Nc2cccc(C(=N)N)c2)c1`, the T/C was 104 % of control (dose: 15.0 mg/kg/injection, schedule: Q01DX Z (ip), vehicle: saline) and 104 % of control (dose: 30.0 mg/kg/injection, schedule: Q01DX Z (ip), vehicle: saline).

Regarding `Cc1ccc(Cl)cc1NC(=O)Oc1ccc(C(C)(C)C)cc1Br`, the T/C under setting [4] was 91 % of control, the T/C under setting [5] is 100 % of control and the T/C under setting [6] is 108 % of control.

Consider `CCCCC(=O)N/N=C\c1ccc(C(=O)O)cc1`, for which the T/C is 96 % of control (dose: 100.0 mg/kg/injection, schedule: Q01DX001 (ip), vehicle: carboxymethylcellulose (CMC)); 100 % of control (dose: 200.0 mg/kg/injection, schedule: Q01DX001 (ip), vehicle: carboxymethylcellulose (CMC)); 110 % of control under setting [1].

With `Cc1cc(=O)c(O)co1`, the T/C by setting is: under setting [4], 98 % of control; under setting [7], 101 % of control; under setting [5], 93 % of control; under setting [8], 101 % of control; under setting [6], 93 % of control; (dose: 400.0 mg/kg/injection, schedule: Q04DX003 (ip), vehicle: Klucel (hydroxypropylcellulose) (HPC)) 101 % of control.

In the case of `C(=N\Nc1nc2ccccc2s1)/c1ccncc1`, the T/C is 106 % of control under setting [4], 96 % of control under setting [5] and 98 % of control under setting [6].

For the compound `O=C(O)c1ccccc1-c1ccc([N+](=O)[O-])cc1Cl`, the T/C was 106 % of control (dose: 177.0 mg/kg/injection, schedule: Q01DX001 (ip), vehicle: carboxymethylcellulose (CMC)); 98 % of control (dose: 266.0 mg/kg/injection, schedule: Q01DX001 (ip), vehicle: carboxymethylcellulose (CMC)); 104 % of control under setting [1].

Take `CCCCN1CCNCC1`: the T/C was 95 % of control under setting [9]; 97 % of control (dose: 100.0 mg/kg/injection, schedule: Q01DX009 (ip), vehicle: saline); 106 % of control (dose: 200.0 mg/kg/injection, schedule: Q01DX009 (ip), vehicle: saline).

`CC(=O)OC1CCC2(C)C3CCC4(C)C(O)CCC4C3CC(O)C2(O)C1` (stereo not drawn): the T/C is, setting by setting: under setting [2], 110 % of control; under setting [3], 97 % of control; (dose: 400.0 mg/kg/injection, schedule: Q01DX009 (ip), vehicle: saline with Tween-80) 94 % of control.

Take `CCC(/C=C\C(C)C1CCC2C3C=CC45CC4CCC5(C)C3CCC12C)C(C)C` (stereo not drawn): the T/C is 96 % of control (dose: 100.0 mg/kg/injection, schedule: Q01DX001 (ip), vehicle: saline with Tween-80); 89 % of control (dose: 200.0 mg/kg/injection, schedule: Q01DX001 (ip), vehicle: saline with Tween-80); 86 % of control (dose: 400.0 mg/kg/injection, schedule: Q01DX001 (ip), vehicle: saline with Tween-80).

`CCCCNC(=O)C1C=C2c3cccc4c3C(CN4)CC2N(C)C1` (stereo not drawn): the T/C is, setting by setting: (dose: 25.0 mg/kg/injection, schedule: Q01DX009 (ip), vehicle: saline with Tween-80) 87 % of control; (dose: 50.0 mg/kg/injection, schedule: Q01DX009 (ip), vehicle: saline with Tween-80) 89 % of control.

As to `Nc1nc2nc(I)[nH]c2c(=O)[nH]1`, the T/C runs as follows: (dose: 5.0 mg/kg/injection, schedule: Q01DX001 (ip), vehicle: saline) 98 % of control; (dose: 10.0 mg/kg/injection, schedule: Q01DX001 (ip), vehicle: saline) 102 % of control; (dose: 20.0 mg/kg/injection, schedule: Q01DX001 (ip), vehicle: saline) 98 % of control; (dose: 40.0 mg/kg/injection, schedule: Q01DX001 (ip), vehicle: saline) 103 % of control.

As for `ClC1=C(Cl)C(Cl)(Cl)C2C1C1C(Cl)=C(Cl)C(Cl)(Cl)C1C1C2C(Cl)=C(Cl)C1(Cl)Cl` (stereo not drawn), the T/C by setting is: (dose: 100.0 mg/kg/injection, schedule: Q01DX001 (ip), vehicle: gum acacia) 95 % of control; (dose: 100.0 mg/kg/injection, schedule: Q01DX009 (ip), vehicle: gum acacia) 92 % of control; (dose: 200.0 mg/kg/injection, schedule: Q01DX001 (ip), vehicle: gum acacia) 88 % of control; (dose: 200.0 mg/kg/injection, schedule: Q01DX009 (ip), vehicle: gum acacia) 94 % of control; (dose: 400.0 mg/kg/injection, schedule: Q01DX001 (ip), vehicle: gum acacia) 92 % of control; (dose: 400.0 mg/kg/injection, schedule: Q01DX009 (ip), vehicle: gum acacia) 93 % of control.

On to `CCCC(=O)OCC1OC(n2ccc(N)nc2=O)C(O)C1OC(=O)CCC` (stereo not drawn), for which the T/C was 183 % of control (dose: 60.0 mg/kg/injection, schedule: Q01DX005 (ip), vehicle: Klucel (hydroxypropylcellulose) (HPC)); 152 % of control (dose: 90.0 mg/kg/injection, schedule: Q01DX005 (ip), vehicle: Klucel (hydroxypropylcellulose) (HPC)); 158 % of control (dose: 134.0 mg/kg/injection, schedule: Q01DX005 (ip), vehicle: Klucel (hydroxypropylcellulose) (HPC)); 162 % of control and 170 % of control (dose: 200.0 mg/kg/injection, schedule: Q01DX005 (ip), vehicle: Klucel (hydroxypropylcellulose) (HPC)).

In the case of `Brc1ccc2[nH]c3c(c2c1)CCCC3`, the T/C runs as follows: (dose: 100.0 mg/kg/injection, schedule: Q01DX001 (ip), vehicle: saline) 87 % of control; (dose: 200.0 mg/kg/injection, schedule: Q01DX001 (ip), vehicle: saline) 89 % of control; (dose: 400.0 mg/kg/injection, schedule: Q01DX001 (ip), vehicle: saline) 98 % of control.

Take `CSc1nc(C)cc(SC(=N)N)n1`: the T/C was 105 % of control (dose: 25.0 mg/kg/injection, schedule: Q01DX009 (ip), vehicle: saline); 98 % of control (dose: 25.0 mg/kg/injection, schedule: Q04DX003 (ip), vehicle: saline); 102 % of control under setting [9]; 97 % of control (dose: 50.0 mg/kg/injection, schedule: Q04DX003 (ip), vehicle: saline); 100 % of control and 101 % of control (dose: 100.0 mg/kg/injection, schedule: Q04DX003 (ip), vehicle: saline).

With `CC(=O)Oc1c(C2CCCCC2)cc([N+](=O)[O-])cc1[N+](=O)[O-]`, the T/C by setting is: under setting [7], 94 % of control; under setting [8], 101 % of control.

Take `O=C(O)C1C(c2c3ccc(=O)c(O)c-3oc3c(O)c(O)ccc23)C2(Cl)C(Cl)=C(Cl)C1(Cl)C2(Cl)Cl` (stereo not drawn): the T/C is 92 % of control (dose: 50.0 mg/kg/injection, schedule: Q01DX009 (ip), vehicle: alcohol); 92 % of control (dose: 100.0 mg/kg/injection, schedule: Q01DX009 (ip), vehicle: alcohol); 100 % of control (dose: 100.0 mg/kg/injection, schedule: Q04DX003 (ip), vehicle: alcohol); 95 % of control (dose: 200.0 mg/kg/injection, schedule: Q04DX003 (ip), vehicle: alcohol).
